From the METLIN SMRT retention time set (Domingo-Almenara et al. 2019)

Assay: gradient 5% acetonitrile 3 min, to 50% in 2 min, to 85% in 15 min, held 3 min, 100 µL/min
Conditions: column: Zorbax Extend-C18 2.1 x 50 mm; eluents: water / acetonitrile, 0.1% formic acid
Outline: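 Pure standards were run in mixtures of ~100 molecules by HPLC coupled to a quadrupole time-of-flight mass spectrometer. The column was a Zorbax Extend-C18 (2.1 × 50 mm, 1.8 μm) at 100 μL/min, with water and acetonitrile each containing 0.1% formic acid, in positive and negative ionization mode. Dead and dwell volumes were 40 μL and 900 μL. Retention time was taken from computationally picked adduct peaks, each manually inspected, with data collected over 3 months.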

SMILES	RP-LC retention time
Cc1cc(-c2nnc(NC(=O)Cn3cnc4c3c(=O)n(C)c(=O)n4C)o2)n(C)n1	580 s
Cc1ccc2nc(-c3ccc(NC(=O)Cn4cnc(C)cc4=O)cc3)sc2c1	762 s
Cn1c(=O)c2cc(C(=O)Nc3ccccc3Cl)cnc2n(-c2ccccc2)c1=O	882 s
c1cc(-c2nc(CC3CCCNC3)no2)ccn1 (stereo not given)	552 s
CCCCS(=O)(=O)N1CCc2nc(-c3ccc(OC)cc3)ncc2C1	983 s
COc1ccc(C(=S)N2CCN(c3cccc(Cl)c3)CC2)cc1	1210 s
Cn1cc2c3c(cccc31)CN(C(=O)C1CCC1)CC2	878 s
Cc1nnc(-c2cc(NC(=O)c3cc(F)ccc3Cl)c(C)s2)o1	955 s
O=C(CNC(=O)C1CCCCC1)Nc1ccc(S(=O)(=O)Nc2ccccc2Cl)cc1	792 s
CCOc1ccc(NC(=O)Nc2c(-c3cccc(C)c3)nc3ccccn23)cc1	697 s
CC(C)n1c(C2CCN(C(=O)c3cccc(N(C)C)c3)C2)nc2ccncc21 (stereo not given)	529 s
CN(C)CCNc1nc(-c2ccc(C(C)(C)C)cc2)nc2ccccc12	590 s
CCOC(=O)Cn1c(C2CC(=O)N(c3ccc(OC)cc3)C2)nc2ccccc21 (stereo not given)	762 s
O=C(Nc1cccc(-c2cn3cccnc3n2)c1)c1ccccc1F	664 s
Cn1ncc2c(Nc3cccc([N+](=O)[O-])c3)ncnc21	683 s
Fc1ccc(F)c(-c2nc(-c3ccc4nncn4c3)no2)c1	801 s
O=C(C1CC1)N1[C@H]2CC[C@@H]1c1cnc(-c3ccc(F)cc3)nc1C2	870 s
CC(C)c1ccc(-c2nc(C3CC(=O)N(c4ccc(Cl)cc4)C3)no2)cc1 (stereo not given)	1300 s
CCOC(=O)C1=CN(Cc2ccccc2)S(=O)(=O)N=C1C	970 s
O=C(c1cccs1)N1CCC2(CC1)NC(=O)N(Cc1ccc(F)cc1)C2=O	764 s

SMILES	RP-LC retention time
O=C(NCCc1ccncc1)C1CC(=O)N(c2n[nH]c3cc(Br)ccc23)C1 (stereo not given)	601 s
O=C(Nc1cccc(-c2nc3ccccc3o2)c1)c1ccc(F)cc1F	994 s
CCNC(=O)CCc1nc2ccccc2n(CC(=O)Nc2ccccc2OCC)c1=O	775 s
CC(C)(C)CC(=O)Nc1cnc(-c2cccnc2)nc1	665 s
CN(CCc1noc(-c2ccc(C(=O)NCCCN3CCCC3)cc2)n1)C(=O)c1ccc(F)cc1	623 s
COc1ccc(-c2coc3cc(OCc4ccc([N+](=O)[O-])cc4)ccc3c2=O)cc1OC	991 s
O=C(CC1CCCN(c2cnn(CC3CC3)c(=O)c2)C1)N1CCC2(CC1)OCCO2 (stereo not given)	706 s
O=C(Nc1cccc(N2CCCCC2=O)c1)c1ccc(Br)o1	680 s
CCOC(=O)c1c(C)oc2nc(C)nc(NCc3ccccn3)c12	683 s
O=C(CC1CCCC1)N1CCC(c2noc(-c3ccncc3)n2)C1 (stereo not given)	786 s
O=C(CSc1ncc(CO)n1Cc1ccccc1)N1CCCc2ccccc21	684 s
CN(C)C(=O)c1ccc2c(c1)nc(CN(C)C(=O)Nc1ccccc1Cl)n2C	611 s
O=C(CN1CCN(Cc2cccc(Cl)c2)C1=O)NCC1CCCCC1	920 s
Cc1ccccc1NC(=O)N1CCCN(c2ccc(=O)n(-c3ccccc3)n2)CC1	720 s
O=C(CN1CCN(Cc2ccc(F)cc2)C1=O)NCCc1ccncc1	596 s
O=C(O)c1cc(-c2ccccc2)nc2ccccc12	849 s
O=C(CN1CCOCC1)N1CC(c2nc(CCOCC3CC3)no2)C1	577 s
Cc1ccc(-c2nc(-c3ccc4c(c3)nc(C)c(=O)n4C)no2)cc1	1090 s
Cc1noc(COC2CCCN(C(=O)NCCc3ccccc3)C2)n1 (stereo not given)	756 s
O=C(NCCCn1nc(-c2ccc(F)cc2)ccc1=O)c1cccc(-n2cnnn2)c1	683 s

SMILES	RP-LC retention time
CC1=C(c2ccc(C)cc2)S(=O)(=O)N=C1N1CCCC1	816 s
CC(C)c1ccc(OCC(=O)Nc2nnc(-c3ccc(Br)o3)o2)cc1	906 s
CC(C)n1c(C2CCN(C(=O)Nc3ccc(Cl)cc3F)C2)nc2ccncc21 (stereo not given)	567 s
COc1nn(C)cc1C(=O)Nc1cc(-c2cccs2)nn1CCO	630 s
Cn1c(=O)c2cc(C(=O)Nc3ccc(F)c(Cl)c3)sc2n(C)c1=O	847 s
CC(C)n1c(CCNC(=O)c2cc(F)cc(F)c2)nc2cccnc21	694 s
Cc1ccnn1-c1ccc(SCC(=O)Nc2ccccc2F)nn1	869 s
COCCN1C(=O)[C@H]2CN(Cc3ccccc3C(F)(F)F)C[C@H]2C1=O	849 s
Cc1nccn1Cc1noc(-c2ccc(Cl)cc2)n1	638 s
O=C(Nc1ccccc1)c1cnn2c1CCCC2	699 s
CCn1nccc1C(=O)Nc1ccc2c(c1)OCO2	693 s
CCCN1C(=O)COc2ccc(-c3noc(-c4ccc(OC)cc4)n3)cc21	1140 s
CN(C)C(=O)OCC1COc2ccccc2O1 (stereo not given)	883 s
COc1ccc(CNC(=O)c2[nH]c3cc(C)sc3c2CN(C)C)cc1	664 s
O=C(NCc1cccs1)C1CCCN(c2cnc3nccnc3c2)C1 (stereo not given)	661 s
CCN(Cc1ccncc1)C(=O)C(CO)c1ccccc1 (stereo not given)	619 s
Cc1ccc(CNC(=O)Cn2cccc2-c2nnc(-c3ccccc3)o2)cc1	940 s
Cc1nc2ccc(C(=O)N3CCCCCC3)cc2nc1C	605 s
CCSc1nc(-c2ccccc2)c(NC(=O)c2ccc(S(=O)(=O)N(C)C)cc2)s1	1000 s

The remaining lines, values ahead:

RP-LC retention time	SMILES
614 s	CN(C)c1ccc(C(=O)N2CCC(c3cc(N)on3)CC2)cc1
801 s	COc1ccccc1NC(=O)C1CCCN1S(=O)(=O)c1cc2c(cc1C)NC(=O)C(C)O2 (stereo not given)
769 s	Cc1c(C(=O)N2CCN(c3ccc(Cl)cc3)CC2)sc2nc[nH]c(=O)c12
922 s	CCOc1ccc(N2CC(c3nc(-c4cccc(OC)c4OC)no3)CC2=O)cc1 (stereo not given)
807 s	COc1ccccc1N1CCN(C(=O)C2CCN(c3nnc(-c4ccccc4)o3)CC2)CC1
1000 s	CCC1Oc2ccc(S(=O)(=O)N3CCC(C(=O)Nc4ccc(C(C)C)cc4)CC3)cc2NC1=O (stereo not given)
664 s	Cc1cc(N2CCN(c3ccccn3)CC2)n2nc(C)c(-c3ccc(F)cc3)c2n1
915 s	CCC(=O)Nc1c(C)noc1/C=C\c1ccc(S(=O)(=O)N2CCCCC2C)cc1 (stereo not given)
675 s	CC1CCN(c2cc(-n3cnc(C(=O)N4CCN(c5ccccn5)CC4)c3)ncn2)CC1
576 s	Cn1cnc2c(=O)oc3ccc(S(=O)(=O)N4CCN(c5ccccn5)CC4)cc3c21
610 s	COc1ccc(N2C(=O)CCC(C(=O)NCCCN3CCCCCC3)C2c2ccc(F)cc2)cc1 (stereo not given)
544 s	Cc1cc(C(=O)Nc2ccc3nc(N4CCN(C)CC4)sc3c2)on1
897 s	COc1cc(OC)cc(C(=O)Nc2nc(-c3ccc4c(c3)NC(=O)CO4)cs2)c1
937 s	CCn1ncn2cc(S(=O)(=O)Nc3ccc(C)cc3C)cc2c1=O
676 s	Cc1cc(C)cc(-n2c(CN3CCN(C(=O)Nc4ccc5c(c4)OCO5)CC3)nc3cccnc32)c1
928 s	COCc1nc(C2CCN(S(=O)(=O)c3ccc4c(c3)CCC4)C2)no1 (stereo not given)

RP-LC retention time	SMILES
802 s	CC(C)c1ccc(S(=O)(=O)N2C[C@@H](F)C[C@H]2C(=O)N2CCOCC2)cc1
579 s	CCN(CC)CCNC(=O)C1CCN(c2nc3ccccc3n3cccc23)CC1
617 s	Cc1nn(CC(=O)NCC2CCN(Cc3ccc(Cl)cc3)CC2)c(=O)c2noc(C)c12
707 s	CC(=O)NCc1nc(-c2ccc3c(c2)nc(C)c(=O)n3C2CCCC2)no1
892 s	Cc1oc2ncnc(N3CCCC(C(=O)NCc4ccccc4Cl)C3)c2c1C (stereo not given)
699 s	Cc1ccc(CNC(=O)C2CCN(S(=O)(=O)c3cc(C(=O)N4CCCC4)n(C)c3)CC2)o1
740 s	CCc1cc2c(cc1N1CCC(N3CCOCC3)CC1)C(C)(C)c1[nH]c3cc(C#N)ccc3c1C2=O
718 s	COCCNC(=O)NC1CCN(C2=NS(=O)(=O)C(c3cccc(Cl)c3)=C2C)CC1
723 s	CCc1ccccc1NC(=O)C1CC(=O)N(c2ccc3oc(C)nc3c2)C1 (stereo not given)
804 s	N#Cc1cnc2ccc(F)cc2c1N1CCC(C(=O)Nc2ccc3c(c2)OCCO3)CC1
928 s	CCc1ccc(C2=C(C)C(N3CCCN(C(=O)NC(C)(C)C)CC3)=NS2(=O)=O)cc1
858 s	CC(C)CCNC(=O)c1ccc2c(=O)n(-c3ccccc3)c(N3CCCC3)nc2c1
993 s	COCCn1cc2c3c(cccc31)CN(C(=O)Nc1cc(Cl)c(OC)cc1OC)CC2
768 s	Cc1ccc2[nH]cc(CCN3CC(C(=O)N4CCCCC4)CC3=O)c2c1 (stereo not given)
576 s	O=C(Nc1cccnc1N1CCOCC1)C1CC1
